Results reported in patent publication US20100247579A1, “THERAPEUTIC AGENT FOR CANCER” (priority 2007, published 2010).

Legend:
Format in all cases: in vivo, C57BL/6 mice
CD3e^+ T cells in blood [1] = assay: T cell count in blood after CPA and T cell transfer, syngeneic tumor model C57BL/6-hB16F10; details: day 6 after cell administration; group A defined as 100%; CPA 100 mg/kg i.p. day 4
Protocol: Evaluation of the lymphocyte count was effected by measuring the leukocyte count and the T cell count contained in the blood sample collected from the mouse tail vein. A volume of 22 μL of the blood was collected into a 0.5 mL tube containing 3 μL of heparin sodium (manufactured by Mitsubishi Wellpharma Inc.) per one mouse. An aliquote of 15 μL was taken from the blood sample, added to a mixed solution of 14 μL of Flow-Count (manufactured by Beckman Coulter Inc.) and 0.5 μL of hamster anti-mouse CD3e FITC (manufactured by eBioscience Inc.), and the mixture was treated for 15 minutes. Thereafter, the erythrocytes were hemolysed with a low isotonic solution, and subjected to flow cytometry to calculate the rate of T cells and the recovery rate of T cells, with the CD3e^+ cells being as the T cells. […] […] Moreover, the recovery rate of the T cells was determined to be a ratio of the number of the T cells on day 4 after the cell administration relative to the number of the T cells immediately before the cell administration.
In a similar manner to item (5) of Example 1, expansion of mouse T cell population was carried out.
Using the mouse T cells which had been expanded in item (1) of Example 11, separation of the naive T-like cells and the effector T-like cells was performed similarly to item (2) of Example 10. […]

hB16F10 [2] = assay: Antitumor activity (tumor size) after CPA and T cell transfer, syngeneic tumor model C57BL/6-hB16F10; details: day 11 after tumor inoculation; CPA 100 mg/kg i.p. day 4
Protocol: On the next day, individual mouse T cells prepared in item (2) of Example 11 was prepared with an RPMI 1640 medium to a density of 3.75×10^8 cells/mL, and the naive T-like cells and the effector T-like cells in 0.2 mL each were administered via the tail veins to each individual of group C and group D, respectively. In addition, the RPMI 1640 medium was administered to each individual of group A and group B in 0.2 mL each via the tail veins.
However, the tumor size was determined on days 11 and 13 after the tumor inoculation.

CD3e^+ T cells in blood [3] = assay: T cell count in blood after MMC and T cell transfer, syngeneic tumor model C57BL/6-hB16F10
Protocol: In a similar manner to item (5) of Example 1, expansion of mouse T cells was carried out, however, the human CH-296 was not used, and the cells on day 6 of culture were collected. The cells were subjected to each experiment.
The cells obtained in item (1) of Example 10 were collected to take a required amount, and centrifuged at 500×g for 5 minutes at room temperature to remove the supernatant. Thereafter, the cells were suspended in DPBS containing 0.5% BSA and 2 mM disodium ethylenediaminetetraacetate (hereinafter referred to as 0.5% BSA/DPBS) to a density of 1.11×10^8 cells/mL. CD62L ([…]) microbeads (mouse) (manufactured by MACS) were added to the cell solution in 10 μL per cell count of 1×10^7 cells, and incubated for 15 minutes while stirring sometimes in a dark place at 4° C. Then, to the cell solution was added 1 mL of 0.5% BSA/DPBS per cell count of 1×10^7 cells, and the mixture was centrifuged at 500×g for 5 minutes at room temperature to remove the supernatant. After that, 0.5 mL of 0.5% BSA/DPBS per cell count of 1×10^8 cells was added thereto, suspended sufficiently, and allowed to stand on ice to afford a CD62L microbeads target cell solution. An LS column (manufactured by MACS, hereinafter referred to as a separation column) was provided to a VarioMACS (trademark) separator (manufactured by MACS, hereinafter referred to as a separation apparatus) and rinsed with 3 mL of 0.5% BSA/DPBS. The CD62L microbeads-labeled cell solution was added to the column for elution and further rinsed with 9 mL of 0.5% BSA/DPBS to collect an eluate, thereby obtaining CD62L^− cells as effector T-like cells. The column was removed from the separation apparatus, and CD62L^+ cells were collected as naive T-like cells by extrusion with a plunger attached to the separation apparatus after addition of 5 mL of a buffer.
Hair removal of about 9 cm^2 in the right inguina of 7-week old female C57BL/6 mice was effected under anesthesia, and 0.1 mL of hB16F10 suspended in an RPMI 1640 medium to a density of 4×10^6 cells/mL was subcutaneously administered to the mice. […]

hB16F10 [4] = assay: Antitumor activity (tumor size) after MMC and T cell transfer, syngeneic tumor model C57BL/6-hB16F10; details: day 14 after tumor inoculation; product of major and minor diameter
Protocol: Hair removal of about 9 cm^2 in the right inguina of 7-week old female C57BL/6 mice was effected under anesthesia, and 0.1 mL of hB16F10 suspended in an RPMI 1640 medium to a density of 4×10^6 cells/mL was subcutaneously administered to the mice. Thereafter, group settings were carried out as follows. Group A was set to an untreated group, group B was set to an MMC alone administration group, group C was set to a combinatorial MMC and naive T-like cell administration group, and group D was set to a combinatorial MMC and effector T-like cell administration group. On days 3 and 4 after tumor inoculation, 0.2 mL of a saline (manufactured by Otsuka Pharmaceutical Co., Ltd.) was intraperitoneally administered to group A and the MMC at a dose of 2 mg/kg was intraperitoneally administered to other groups. On day 6 after the tumor inoculation, individual mouse T cells prepared in item (2) of Example 10 were prepared with an RPMI 1640 medium to a density of 5×10^8 cells/mL. The naive T-like cells and the effector T-like cells in 0.2 mL each were respectively administered to each individual of group C and group D via the tail veins. […]
In order to assay the antitumor activity in the evaluation system performed in item (3) of Example 10, a tumor size in each individual on day 14 after the tumor inoculation was determined with an electronic caliper. […]

What does the source list for `O=P1(N(CCCl)CCCl)NCCCO1` (stereo not drawn) [CPA, cyclophosamide]?
Rate of T cells (%) (CD3e^+ T cells in blood [1]): 52.2%; Tumor Size (mm^2) On day 11 (hB16F10 [2]): 32.6 mm^2

Which results are given for `CO[C@@]12[C@H](COC(N)=O)C3=C(C(=O)C(C)=C(N)C3=O)N1C[C@@H]1N[C@@H]12` [MMC, mitomycin C]?
Rate of T Cells On Day 4 after Cell Administration (CD3e^+ T cells in blood [3]; group A (untreated) defined as 100%, MMC 2 mg/kg i.p. days 3 and 4, cells via tail vein day 6): 118.2%; Rate of T Cells Immediately before Cell Administration (CD3e^+ T cells in blood [3]; group A (untreated) defined as 100%, MMC 2 mg/kg i.p. on days 3 and 4 after tumor inoculation): 84.1%; Recovery Rate of T Cells (CD3e^+ T cells in blood [3]; ratio of T cell number on day 4 after cell administration to number immediately before): 1.4; Tumor Size (mm^2) (hB16F10 [4]): 82.5 mm^2
